How the values were obtained:
P. acnes = settings: complete inhibition
Staphyloccocus aureus = settings: at low concentration
Escherichia coli = settings: at low concentration
[1] = test system: C. albicans isolates, including one fluconazole-resistant strain; settings: AGP at 0.25% topical, 1-7 days, cyclophosphamide-immunosuppressed animals; compared with 2% miconazole
Protocol: Pre-clinical studies with three C. albicans isolates, including one fluconazole-resistant strain, were performed using immunosuppressed animals with cyclophosphamide.

acne = settings: 4% active AGP formula; in less than 48 hours
[2] = test system: P. acnes and various pathogenic candida; settings: including against resistant pathogenic strains

N-acetylglucoseamine (AGA)-glucosamine (GA)-pyrithione (PR) [AGP]
concentration that completely inhibited P. acnes (P. acnes): less than 0.1 mg/mL | activity toward Staphyloccocus aureus (Staphyloccocus aureus): active | activity toward Escherichia coli (Escherichia coli): active | clearing the infection [1]: equivalent in clearing the infection as 2% miconazole | results in acne patients (acne): remarkable results | bactericidal activity [2]: excellent bactericidal activity
